The conditions of data set [1]: Crystal; DTA.
Data set [2] in a line: Molar enthalpy of transition or fusion. Particulars: Crystal; DSC.

Molecules are shown by their SMILES. Numbers after ± are expanded uncertainties.

Turning to `Clc1ccccc1C(c1ccccc1)(c1ccccc1)n1ccnc1` [1-((2-chlorophenyl)diphenylmethyl)-1H-imidazole], the Normal melting temperature in data set [1] is 143.00 ± 0.4 °C. Further, the “Molar enthalpy of transition or fusion” value in data set [2] is 8.36 ± 0.203 kcal/mol.

Source of the values: the NIST ThermoML archive (doi:10.1016/j.tca.2019.178431).
